Assays:
[1] = biological target: uPAR.uPA protein-protein interaction (Homo sapiens, UniProt Q03405); test: Fluorescence polarization, urokinase receptor with peptide AE147; type: binding; details: 24 h at 4° C.
Excerpt: (§1) The selectivity of the compounds was explored with two unrelated protein-protein interactions between (i) the urokinase receptor (uPAR) and its ligand urokinase (uPA); and (ii) the a subunit of the voltage-gated calcium channel Cav2.2 with its β subunit Cavβ3. […] Both proteins have cysteine residues capable of forming covalent adducts.
(§2) FIG. 4D illustrates BLI measurements of the binding of TEAD4 to captured Yap when biotin-labeled GST-Yap1 was captured onto streptavidin-conjugated biolayer interferometry sensors which were dipped into varying concentrations of TEAD4. (mean±s.d.; n=3). […] FIG. 4F illustrates measured fluorescence polarization when increasing concentration of HIS-TEAD2 was mixed with 16 nM FAM-Yap60-99 peptide (mean±s.d.; n=3). FIG. 4G illustrates measured fluorescence polarization when HIS-TEAD2 was incubated with increasing concentration of compounds for 24 h at 4° C. followed by addition of FAM-Yap60-99 (mean±s.d.; n=3). FIG. 4H illustrates measured fluorescence polarization when urokinase receptor (uPAR) was incubated with varying concentrations of compounds for 24 h at 4° C. followed by addition of a urokinase-derived fluorescently-labeled peptide AE147 (mean±s.d.; n=3). […]

[2] = biological target: T1, TEAD2 binding to Yap1 (Homo sapiens, UniProt Q15562); test: Fluorescence polarization, HIS-TEAD2 with FAM-Yap60-99 peptide; details: 24 h at 4° C.
T1 construct: TEAD2 (217-447) was expressed as N-terminal HIS-fusion protein; made in house; host or cells: E. coli BL-21 (DE3), pET-28a
Description: (§3) GST-TEAD4, GST-TEAD4 Cys367Ser mutant or HIS-TEAD2 interaction with Yap1 was investigated using a fluorescently-labeled peptide (FAM-Yap60-99), consisting of FAM-labeled TEAD-binding peptide fragment of Yap1 (FAM-[…] TVPMCLRKLPASFCKPP), which has a disulfide bridge (American Peptide, Sunnyvale, Calif.). Addition of FAM-Yap60-99 to the TEAD was followed by measurement of changes in polarization. 40 μL of 125 nM GST-TEAD4 WT or GST-TEAD4 Cys367Ser in assay buffer (PBS with 0.01% v/v Triton-X100) or 40 μL of 64 nM HIS-TEAD2 was added to a 384-well black polystyrene plate (Cat. No. 262260; Nunc, Roskilde, Denmark) and incubated with 5 μL of […] serially diluted compounds in assay buffer supplemented with 20% v/v DMSO for 24 h at 4° C. Finally, 5 μL of 160 nM FAM-Yap60-99 peptide was added, the plate centrifuged, and the polarization was measured on an Envision Multilabel Plate Reader (PerkinElmer, Waltham, Mass.) using a filter set with excitation and emission wavelengths of 485 and 535 nm, respectively. Percent inhibition was calculated as relative to a minimum inhibition control, which is without compound, and a maximum inhibition control, which is without a TEAD.

[3] = biological target: T2, TEAD4 (Homo sapiens, UniProt Q15561); test: Whole protein ESI mass spectrometry, adduct formation; type: binding; set-up: TEAD4 (217-434), TEAD4 (217-434) Cys367Ser mutant and Yap1 (Full-length) were expressed as GST-fusion proteins; GST (N, cleaved yes); made in house; host or cells: E. coli BL-21 (DE3), pGEX-6P-1; details: 10 μM TEAD4, 200 μM compound, 24 h at 4° C.
Description: The samples were centrifuged at 20,000×g for […] to remove precipitants before being injected into an empty column on an Agilent 1200 liquid chromatography system (Agilent, Santa Clara, Calif.), using 80% Buffer A (H2O, 5 mM NH4OAc) and 20% Buffer B (ACN, 5 mM NH4OAc), and the masses were detected on an Agilent 6520 Accurate Mass Q-TOF.
It was determined whether a covalent bond formed between inventive compounds and TEAD4. […] The covalent adduct formation by compound 2 was relatively fast (FIG. 3G), reaching nearly 100% adduct formation after 30 min incubation with TEAD4. Because the rate of inhibition developed over a longer timescale (FIG. 3C), compound 2 is proposed to induce a slow conformational change in TEAD4 that prevents its interaction with Yap1. To rule out the possibility that compound 2 induces slow aggregation of TEAD4, and not the proposed slow conformational change, GST-TEAD4 was incubated with DMSO compound 2 for 24 h at 4° C., followed by injection into an SEC column (FIG. 3H). […] A slight increase in dimer formation for the TEAD4 sample incubated with compound 2 occurred compared to the sample incubated with DMSO. […] Furthermore, it is highly unlikely that Cys-367 oxidation was responsible for the lack of 100% inhibition at longer times since it has been shown that covalent bond formation is rapid and complete within less than an hour.
Target sequence in this assay (Q15561 217-434): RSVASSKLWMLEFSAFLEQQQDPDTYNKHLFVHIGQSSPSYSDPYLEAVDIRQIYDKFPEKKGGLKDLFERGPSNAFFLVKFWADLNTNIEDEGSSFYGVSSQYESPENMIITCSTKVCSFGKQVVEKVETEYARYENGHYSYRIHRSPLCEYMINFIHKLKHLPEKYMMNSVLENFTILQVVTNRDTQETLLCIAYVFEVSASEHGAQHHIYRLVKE

[4] = biological target: TEAD4.Yap1 interaction (Homo sapiens, UniProt Q15561); test: Fluorescence polarization, GST-TEAD4 with FAM-Yap60-99 peptide; type: binding; set-up: TEAD4 (217-434), TEAD4 (217-434) Cys367Ser mutant and Yap1 (Full-length) were expressed as GST-fusion proteins; made in house; host or cells: E. coli BL-21 (DE3), pGEX-6P-1; details: FP assay, 24 h at 4° C.
Description: as §3
For the determination of the inhibition efficiency kinact/K1, the protein compound incubation time was varied between […], prior to the addition of the FAM-Yap60-99 peptide and fluorescence polarization measurements. The progressive decrease in TEAD activities were plotted against time for all 10 concentrations ([…]) of the compounds and the observed rate of inhibition (kobs) was calculated by fitting a simple exponential function.
The observed rate of inhibition was then plotted against the concentration of the compound and a […] function kobs=kinact[Inhibitor]/K1+[Inhibitor] was fitted to determine the kinact and K1 values.

[5] = biological target: Cav2.2 α·β protein-protein interaction (Homo sapiens, UniProt P54284); test: Fluorescence polarization, Cavβ3 with labeled α-subunit peptide; type: binding; details: 24 h at 4° C.
Excerpt: as §1, §2

[6] = biological target: T2, TEAD4; test: Covalent streptavidin pull down of myc-TEAD4 from HEK293 cell lysates; type: cell-based; set-up: expressed in transfected cells; host or cells: HEK293; details: added to cell lysates
Description: HEK293 cells transfected with the myc-TEAD4 construct were grown for 48 h and then treated with DMSO or with 25 μM of compound 2 for an additional 48 h. Cells were then harvested in lysis buffer (50 mM Tris-HCl, pH 7.3, 150 mM NaCl, 0.5 mM EDTA, 1% Triton X-100, PhosSTOP phosphatase inhibitor cocktail, and EDTA-free protease inhibitors cocktail). Cell lysates containing 2 mg of protein were incubated with the indicated compounds or DMSO for 24 h. Extracts were then incubated with Dynabeads M-280 Streptavidin (Sigma-Aldrich) for 2 h at 4° C. Dynabeads were then washed and bound proteins were denatured and eluted according to the manufacturer's instructions. Relative levels of myc-TEAD4 from each complex were measured by immunoblot analysis with the anti-c-Myc antibody (1:5,000, Sigma-Aldrich).
Target sequence in this assay (Q15561 whole entry, the tested form may be a part): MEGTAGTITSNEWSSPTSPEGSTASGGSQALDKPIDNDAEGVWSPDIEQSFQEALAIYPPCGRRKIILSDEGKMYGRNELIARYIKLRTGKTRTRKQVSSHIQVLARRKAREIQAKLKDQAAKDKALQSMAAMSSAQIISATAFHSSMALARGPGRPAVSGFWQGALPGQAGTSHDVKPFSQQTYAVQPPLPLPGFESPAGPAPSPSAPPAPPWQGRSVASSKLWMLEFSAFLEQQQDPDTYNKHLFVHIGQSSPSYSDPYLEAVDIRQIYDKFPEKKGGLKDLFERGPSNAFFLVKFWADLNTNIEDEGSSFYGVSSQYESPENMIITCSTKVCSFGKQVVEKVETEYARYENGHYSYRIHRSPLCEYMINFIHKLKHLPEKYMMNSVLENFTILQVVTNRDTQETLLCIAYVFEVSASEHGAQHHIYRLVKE

[7] = tested on: patient-derived GBM43 glioblastoma spheroids; test: GBM43 spheroid viability (Alamar blue); type: cell-based, human; details: three-dimensional spheroids
Description: Early-passage GBM43 cells were cultured in ultralow adherence plates (Corning Inc.) at 1 to 2×10^3 cells/mL in DMEM supplemented with 1% […] (Invitrogen), 2% B27 (Invitrogen), 25 ng/mL epidermal growth factor (EGF, 25 ng/mL fibroblast growth factor (FGF) (R&D Systems, Inc.), […], 2 ng/mL platelet growth factor, and 100 ng/mL each of penicillin and streptomycin (Invitrogen Inc.). Individual cells were recovered from spheres by incubation with Accutase (Sigma-Aldrich) for 10-15 minutes. Cells (50-100/well) were then seeded in fresh sphere-forming media in 96-well plates. After 2-3 days, Neurospheres containing 6 to 8 cells were treated with compounds 1, 2, and 5.
HEK-293 were cultured in DMEM with glutamine (Cellgro, Manassas, Va.) supplemented with 10% FBS and 1% penicillin/streptomycin in a 5% CO2 atmosphere at 37° C. Tumors were expanded by passage in the flank of NOD/SCIDγnull mice. To generate GBM43 cell lines, tumors were harvested, disaggregated, and maintained in 2.5% FBS for 14 days on Matrigel-coated plates (BD Biosciences) to remove murine fibroblasts. In-vitro GBM43 cell lines were propagated in DMEM with 10% FBS for no more than 7 passages. Cell line identity was confirmed by DNA fingerprint analysis (IDEXX BioResearch) for species and baseline short-tandem repeat analysis testing. GBM43 spheroids were generated by plating early-passage cells at 2.5×10^4 cells per well in 96-well ultralow attachment plates (Corning Inc.) in DMEM/F12 (1:1; GIBCO) supplemented with 2% B27 supplement (GIBCO), 20 ng/mL epidermal growth factor (EGF), and 20 ng/mL fibroblast growth factor (FGF) (Peprotech) for 2 days. The spheroids were then treated with compounds 1, 2, and 5 and growth analyzed by Alamar blue staining.

[8] = biological target: TEAD2 (Homo sapiens, UniProt Q15562); details: cited from earlier work
[9] = tested on: CTGF transcript levels; test: qRT-PCR of CTGF transcript in GBM43 cells; type: cell-based, human; details: FIG. 8C

Chain of TEAD2 (Q15562 whole entry): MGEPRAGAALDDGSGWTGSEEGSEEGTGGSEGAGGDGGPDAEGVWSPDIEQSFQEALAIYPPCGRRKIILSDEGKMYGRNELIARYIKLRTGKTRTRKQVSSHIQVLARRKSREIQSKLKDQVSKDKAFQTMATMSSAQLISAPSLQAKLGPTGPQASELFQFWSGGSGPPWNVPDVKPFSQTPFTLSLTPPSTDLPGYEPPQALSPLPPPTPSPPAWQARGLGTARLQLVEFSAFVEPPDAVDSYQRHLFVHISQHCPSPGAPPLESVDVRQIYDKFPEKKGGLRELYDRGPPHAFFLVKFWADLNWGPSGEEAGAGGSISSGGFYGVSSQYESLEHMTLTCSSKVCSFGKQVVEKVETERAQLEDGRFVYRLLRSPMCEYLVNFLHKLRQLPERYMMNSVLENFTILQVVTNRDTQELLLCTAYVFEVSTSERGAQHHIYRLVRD
T1 sequence (Q15562 217-447): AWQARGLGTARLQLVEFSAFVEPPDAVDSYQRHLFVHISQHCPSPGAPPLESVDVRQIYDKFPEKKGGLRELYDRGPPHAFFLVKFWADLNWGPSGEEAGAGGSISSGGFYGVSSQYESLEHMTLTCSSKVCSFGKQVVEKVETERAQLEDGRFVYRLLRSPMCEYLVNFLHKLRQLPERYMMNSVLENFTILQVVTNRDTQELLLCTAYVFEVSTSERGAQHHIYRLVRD
Chain of TEAD4.Yap1 interaction (Q15561 217-434): as the sequence (Q15561 217-434) above
Chain of Cav2.2 α·β protein-protein interaction (P54284 whole entry): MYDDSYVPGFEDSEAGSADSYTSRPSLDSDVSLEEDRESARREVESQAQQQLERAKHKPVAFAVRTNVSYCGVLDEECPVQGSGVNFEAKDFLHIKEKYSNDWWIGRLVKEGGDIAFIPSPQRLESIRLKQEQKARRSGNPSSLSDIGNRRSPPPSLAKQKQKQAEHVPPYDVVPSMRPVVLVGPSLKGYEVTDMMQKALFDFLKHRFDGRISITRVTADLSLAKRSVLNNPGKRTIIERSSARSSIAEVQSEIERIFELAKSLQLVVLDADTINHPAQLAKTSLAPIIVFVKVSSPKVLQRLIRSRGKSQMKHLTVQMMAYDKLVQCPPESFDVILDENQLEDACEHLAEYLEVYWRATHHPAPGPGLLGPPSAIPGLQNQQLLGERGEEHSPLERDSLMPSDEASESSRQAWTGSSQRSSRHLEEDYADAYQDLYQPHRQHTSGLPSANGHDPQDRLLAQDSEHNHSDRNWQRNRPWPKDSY
Chain of uPAR.uPA protein-protein interaction (Q03405 23-305 limits assumed): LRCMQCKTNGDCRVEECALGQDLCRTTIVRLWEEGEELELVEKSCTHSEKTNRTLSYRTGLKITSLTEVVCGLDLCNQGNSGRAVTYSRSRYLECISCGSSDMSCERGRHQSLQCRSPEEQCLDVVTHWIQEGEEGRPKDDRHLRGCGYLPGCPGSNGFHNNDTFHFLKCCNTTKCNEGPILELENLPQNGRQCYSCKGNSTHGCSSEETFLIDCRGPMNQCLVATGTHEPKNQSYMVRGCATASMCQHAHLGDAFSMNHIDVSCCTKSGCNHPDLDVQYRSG

Compound | inhibition of uPAR.uPA interaction [1] | inhibition of TEAD2 binding to Yap1 [2] | covalent adduct formation with TEAD4 [3] | inhibition of TEAD4.Yap1 interaction [4] | inhibition of Cav2.2 α·β interaction [5] | TEAD4 in streptavidin pull-down, immunoblot [6] | effect on GBM43 cancer cell viability / growth [7] | inhibition of TEAD binding to Yap [8] | binding to TEAD2 ([8]; two sites on TEAD2) | CTGF transcript levels versus vehicle [9]
CCC(=O)c1ccccc1Nc1cccc(C(F)(F)F)c1 [Compound 3, 1-(2-((3-(trifluoromethyl)phenyl)amino)phenyl)propan-1-one] | no inhibition | inactive | no adduct formation | did not inhibit | no inhibition | – | – | – | – | –
O=C(CCCCC1SCC2NC(=O)NC21)NCCOCCOCCCCCOc1cccc(Nc2ccccc2C(=O)CCl)c1 (stereo not drawn) [Compound 9, N-(2-(2-((5-(3-((2-(2-chloroacetyl)phenyl)amino)phenoxy)pentyl)oxy)ethoxy)ethyl)-5-(2-oxohexahydro-1H-thieno[3,4-d]imidazol-4-yl)pentanamide] | – | – | – | – | – | TEAD4 was specifically detected | – | – | – | –
O=C(O)c1ccccc1Nc1cccc(C(F)(F)F)c1 [Compound 1, 2-((3-(trifluoromethyl)phenyl)amino)benzoic acid, reference compound] | – | inactive | – | did not inhibit | – | – | did not affect | did not inhibit | binds weakly | no effect

Source: US20210403415A1, “COMPOUNDS AND METHODS TO ATTENUATE TUMOR PROGRESSION AND METASTASIS” (THE TRUSTEES OF INDIANA UNIVERSITY, priority 2018, published 2021)
